Experimental data taken from the supplement of paper PMC10307832.

How the values were obtained:
Experiment in all cases: relative viability (nuclei count vs DMSO), 5 days (fraction); higher = more cells survive
[1] = compound: C1=CC=C(C(=C1)C2=CC=C(C=C2)C3=CSC4=C3C(=C(C(=O)N4)C#N)O)O + C[C@]1(O)C[C@@H](c2nc(-c3ccc4ccc(-c5ccccc5)nc4c3)c3c(N)nccn32)C1 [Linsitinib] (partner 1 µM)
Summary of the method: (§1)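 Five library-drug doses in √10 steps were combined with a fixed anchor-drug dose, or a single drug was given alone, by pin tool to lung cancer cell lines in 1536-well plates the day after seeding. Nuclei were stained and counted after 5 days. Relative viability is the nuclei count in treated wells over that in vehicle wells, taken as the median of duplicate plates.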

TGX 221 + Foretinib = compound: CC1=CN2C(=O)C=C(N=C2C(=C1)C(C)NC3=CC=CC=C3)N4CCOCC4 [TGX 221] + COc1cc2c(Oc3ccc(NC(=O)C4(C(=O)Nc5ccc(F)cc5)CC4)cc3F)ccnc2cc1OCCCN1CCOCC1 [Foretinib] (partner 0.25 µM)
Summary of the method: as §1

TGX 221 + Decitabine = compound: CC1=CN2C(=O)C=C(N=C2C(=C1)C(C)NC3=CC=CC=C3)N4CCOCC4 [TGX 221] + Nc1ncn([C@H]2C[C@H](O)[C@@H](CO)O2)c(=O)n1 [Decitabine] (partner 2 µM)
Summary of the method: as §1

Ricolinostat + Alpelisib = compound: O=C(CCCCCCNC(=O)c1cnc(N(c2ccccc2)c2ccccc2)nc1)NO [Ricolinostat] + Cc1nc(NC(=O)N2CCC[C@H]2C(N)=O)sc1-c1ccnc(C(C)(C)C(F)(F)F)c1 [Alpelisib] (partner 2 µM)
Summary of the method: as §1

Cell Line | relative viability ([1]; first compound 0.08 µM) | relative viability ([1]; first compound 0.253 µM) | relative viability ([1]; first compound 0.8 µM) | relative viability ([1]; first compound 2.53 µM) | relative viability ([1]; first compound 8 µM) | relative viability (TGX 221 + Foretinib; first compound 0.08 µM) | relative viability (TGX 221 + Foretinib; first compound 0.253 µM) | relative viability (TGX 221 + Foretinib; first compound 0.8 µM) | relative viability (TGX 221 + Foretinib; first compound 2.53 µM) | relative viability (TGX 221 + Foretinib; first compound 8 µM) | relative viability (TGX 221 + Decitabine; first compound 0.08 µM) | relative viability (TGX 221 + Decitabine; first compound 0.253 µM) | relative viability (TGX 221 + Decitabine; first compound 0.8 µM) | relative viability (TGX 221 + Decitabine; first compound 2.53 µM) | relative viability (TGX 221 + Decitabine; first compound 8 µM) | relative viability (Ricolinostat + Alpelisib; first compound 0.08 µM) | relative viability (Ricolinostat + Alpelisib; first compound 0.253 µM) | relative viability (Ricolinostat + Alpelisib; first compound 0.8 µM) | relative viability (Ricolinostat + Alpelisib; first compound 2.53 µM)
201T | 1.09 | 1.06 | 1.03 | 1.02 | 1.1 | 1.22 | 1.09 | 1.13 | 0.931 | 0.817 | 0.831 | 0.85 | 0.844 | 0.871 | 0.873 | 0.905 | 0.946 | 1.03 | 0.887
A549 | 0.635 | 0.606 | 0.509 | 0.521 | 0.393 | 1.05 | 0.917 | 0.997 | 1.06 | 0.801 | 0.337 | 0.25 | 0.294 | 0.26 | 0.349 | 0.537 | 0.805 | 0.663 | 0.631
A-427 | 1.09 | 1.12 | 1.11 | 1.15 | 1.18 | 1.15 | 0.987 | 1.12 | 1.05 | 1.06 | 0.548 | 0.55 | 0.558 | 0.594 | 0.519 | 0.927 | 1.07 | 1.09 | 0.983
ABC-1 | 0.926 | 0.906 | 0.856 | 0.875 | 0.735 | 1.1 | 0.806 | 0.817 | 1.1 | 0.835 | 1.06 | 1.26 | 1 | 1.07 | 0.923 | 0.955 | 0.933 | 1.11 | 0.648
BEN | 0.609 | 0.999 | 0.93 | 1.21 | 0.822 | 0.667 | 0.58 | 0.748 | 0.624 | 0.606 | 0.679 | 0.669 | 0.667 | 0.715 | 0.715 | 0.951 | 0.901 | 0.978 | 0.655
CAL-12T | 0.636 | 1.12 | 0.762 | 0.907 | 0.787 | 0.994 | 1.12 | 1.27 | 1.15 | 1.09 | – | – | – | – | – | 1.1 | 0.998 | 1.15 | 0.912
COR-L23 | 0.703 | 0.816 | 1.02 | 0.99 | 0.747 | 0.889 | 0.912 | 1.04 | 0.964 | 0.938 | 0.445 | 0.402 | 0.483 | 0.487 | 0.489 | 0.651 | 0.689 | 0.571 | 0.407
COR-L 105 | 0.964 | 0.781 | 0.924 | 0.957 | 0.953 | 0.993 | 0.976 | 0.99 | 0.825 | 0.781 | 0.651 | 0.609 | 0.628 | 0.649 | 0.596 | 0.698 | 0.98 | 0.934 | 1.25
Calu-6 | 0.95 | 1.1 | 1.06 | 1.01 | 0.786 | 0.888 | 0.8 | 0.88 | 0.923 | 0.815 | – | – | – | – | – | 0.91 | 0.947 | 1.01 | 0.878
ChaGo-K-1 | – | – | – | – | – | 0.989 | 0.871 | 0.926 | 0.827 | 0.876 | 0.485 | 0.519 | 0.563 | 0.544 | 0.548 | – | – | – | –
EBC-1 | 0.784 | 1.16 | 0.642 | 0.925 | 0.781 | 0.0971 | 0.106 | 0.102 | 0.1 | 0.11 | – | – | – | – | – | 0.57 | 0.737 | 0.699 | 0.414
EKVX | 0.751 | 1.28 | 0.883 | 1.1 | 0.779 | 0.691 | 0.914 | 0.763 | 0.691 | 0.925 | 0.346 | 0.313 | 0.345 | 0.367 | 0.307 | – | 0.883 | 0.882 | 0.942
EMC-BAC-2 | 0.759 | 0.853 | 0.837 | 0.811 | 0.77 | 1.03 | 0.882 | 0.882 | 0.903 | 0.773 | 0.961 | 0.886 | 0.947 | 1.05 | 0.85 | 0.644 | 0.669 | 0.768 | 0.816
EPLC-272H | – | 1.46 | 1.23 | 1.24 | 0.888 | 0.628 | 0.538 | 0.515 | 0.764 | 0.479 | 0.352 | 0.349 | 0.316 | 0.343 | 0.332 | – | 0.891 | 1.04 | 0.7
H3255 | 0.912 | 1.06 | 0.854 | 0.967 | 0.78 | 0.88 | 0.762 | 0.844 | 0.852 | 0.868 | 0.54 | 0.595 | 0.53 | 0.58 | 0.553 | 0.517 | 0.651 | 0.678 | 0.661
HARA | – | 1.68 | 0.998 | 1.07 | 0.774 | 0.703 | 0.71 | 0.904 | 0.849 | 0.667 | 0.604 | 0.488 | 0.529 | 0.504 | 0.433 | 0.545 | 0.79 | 0.693 | 0.618
HCC-15 | 0.914 | 0.844 | 0.985 | 0.918 | 0.871 | 0.993 | 0.964 | 1 | 0.973 | 1 | 0.699 | 0.648 | 0.636 | 0.591 | 0.709 | 0.753 | 0.875 | 0.834 | 0.894
HCC-44 | 0.587 | 0.84 | 0.66 | 0.715 | 0.58 | – | – | – | – | – | 0.921 | 0.957 | 1.03 | 1.04 | 1.02 | 0.694 | 0.743 | 0.725 | 0.612
HCC-78 | 0.534 | 0.73 | 0.551 | 0.484 | 0.462 | 0.581 | 0.551 | 0.586 | 0.478 | 0.502 | 0.589 | 0.736 | 0.699 | 0.693 | 0.68 | – | 0.32 | 0.291 | 0.192
